Paper PMC12445698 (2025)

What was measured:
Experiment in all cases: ITC
Conditions in all cases: 50 mM KCl, 10 mM MgCl2; 40 mM HEPES pH 7.4
[1] = system: I39C (RNA, riboswitch) GGGUUGUAUAAGCUCGUUAAUUUGGAAUGAGCGUAUCUACCAGGCAACCGUAAAUUGCCCCAGGCUACAAUC
[2] = system: U38G-I39C (RNA, riboswitch) GGGUUGUAUAAGCUCGUUAAUUUGGAAUGAGCGUAUCGACCAGGCAACCGUAAAUUGCCCCAGGCUACAAUC
[3] = system: U38C (RNA, riboswitch) GGGUUGUAUAAGCUCGUUAAUUUGGAAUGAGCGUAUCCACAGGCAACCGUAAAUUGCCCCAGGCUACAAUC

SMILES: O=c1[nH]c(=O)c2[nH]cnc2[nH]1
- Kd [1]: 9.79 µM
- Kd [2]: 14.6 µM

SMILES: Nc1nc2[nH]cnc2c(=O)[nH]1
- Kd [3]: 1.3 µM
- Kd [1]: 0.0017 µM
